Reference: US9409952B2, “Peptide-compound cyclization method” (Chugai Seiyaku Kabushiki Kaisha, priority 2011, dated 2016)
Where two headings read alike, the source gives them in different places. Starred links: 1 amine or outer side, 2 acyl side, 3 side chain; linkers in the order of their positions; H or OH if unused. Positions of bridges follow the written chain, without caps; N, C: chain ends. Non-standard residues stand in square brackets, D forms with d. Residues, ends and D or L forms follow the SMILES beside them. *: point of attachment. Phe(4-(CH2)5CO) = O=C([C@H](Cc1ccc(CCCCCC(=O)[*:3])cc1)N[*:1])[*:2]; Phe(4-CF3) = N[C@@H](Cc1ccc(C(F)(F)F)cc1)C(=O)O; NMeF = CN[C@@H](Cc1ccccc1)C(=O)O; NMeGABA = CN(CCCC(=O)[*:2])[*:1]; NMeI = CC[C@H](C)[C@H](NC)C(=O)O; NMeβAla = CN(CCC(=O)[*:2])[*:1]; NMeL = CN[C@@H](CC(C)C)C(=O)O; NMeV = CN[C@H](C(=O)O)C(C)C; NMeA = CN[C@@H](C)C(=O)O; Piperidide = C1CCN(*)CC1; dNMeA = CN[C@H](C)C(=O)O; β3hA = C[C@H](N)CC(=O)O; Sar = CNCC(=O)O; tBu = CC(C)(C)*

What was measured:
[1] = PAMPA (parallel artificial membrane permeability assay); format: in vitro ADME; conditions: PAMPA
Summary of the method: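 Artificial membrane was 10% (w/v) egg lecithin plus 0.5% (w/v) cholesterol in dodecane on a PVDF filter. A 10 mM DMSO stock was added at 0.5% (v/v) to donor buffer (50 mM MOPSO, pH 6.5, 5.0% glycocholic acid). After 18 h at 37 °C, LC/MS or LC/UV gave donor and acceptor levels for Pe.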

[2] = Metabolic stability in human hepatic microsome; format: in vitro ADME; conditions: microsomes
[3] = membrane permeation rate (Pe), 50 mM MOPSO buffer pH 6.5 with 5.0% glycocholic acid, 37° C., 18 hours, read-out: iPAMPA Pe
[4] = pH 7.4, human hepatic microsome, NADPH(+), read-out: CL NADPH(+)

Row | SMILES | Papp at 18 hours, 50 µM [1, 3] | microsomal CLint at 1 uM [2, 4] | Papp at 18 hours, 50 µM ([1]; pH 6.5) | microsomal CLint at 1 uM ([2]; human, pH 7.4, CL NADPH(+))
1 | CC[C@H](C)[C@@H]1NC(=O)[C@H](C(C)C)N(C)C(=O)[C@H](C)N(C)C(=O)[C@H]([C@@H](C)O)NC(=O)[C@H](CC(C)C)N(C)C(=O)[C@H](Cc2ccccc2)NC(=O)[C@H](CC(C)C)N(C)C(=O)[C@@H](C)N(C)C(=O)C[C@@H](C(=O)N2CCCCC2)NC(=O)[C@H](C)NC(=O)[C@H](CC(C)C)N(C)C1=O [DP-417] ([dNMeA][NMeL]F[NMeL]T[NMeA][NMeV]I[NMeL]AD-Piperidide; lactam N-11) | 43 ×10⁻⁶ cm/s | 113 µL/min/mg | – | –
2 | CC(C)C[C@@H]1NC(=O)CCN(C)C(=O)C[C@@H](C(=O)N2CCCCC2)NC(=O)[C@H](Cc2ccccc2)N(C)C(=O)CNC(=O)[C@H]([C@@H](C)O)NC(=O)[C@H](Cc2ccccc2)NC(=O)[C@H](CC(C)C)N(C)C(=O)[C@H](CC(C)C)NC(=O)[C@H](Cc2ccccc2)NC1=O [DP-117] ([NMeβAla]LFL[NMeL]FTG[NMeF]D-Piperidide; lactam N-10) | 25 ×10⁻⁶ cm/s | 194 µL/min/mg | – | –
3 | CC(C)C[C@H]1C(=O)N(C)[C@@H](Cc2ccccc2)C(=O)N[C@H](C(=O)N2CCCCC2)CC(=O)N(C)[C@@H](C)C(=O)N[C@@H]([C@@H](C)O)C(=O)N(C)CC(=O)N[C@@H](COC(C)(C)C)C(=O)N(C)[C@@H](Cc2ccccc2)C(=O)N1C [DP-710] ([NMeA]T[Sar]S(tBu)[NMeF][NMeL][NMeF]D-Piperidide; lactam N-8) | 44 ×10⁻⁶ cm/s | 121 µL/min/mg | – | –
4 | CC(C)C[C@@H]1NC(=O)[C@H](C)NC(=O)C[C@H](C)NC(=O)[C@H](C(C)C)N(C)C(=O)[C@H](Cc2ccc(C(F)(F)F)cc2)NC(=O)[C@H](CC(C)C)N(C)C(=O)[C@H]([C@@H](C)O)NC(=O)[C@H](Cc2ccc(C(F)(F)F)cc2)NC(=O)[C@H](C)N(C)C(=O)CNC(=O)[C@H](CC(C)C)N(C)C(=O)[C@H](C)N(C)C1=O [DP-814] (cyclo(AL[NMeA][NMeL]G[NMeA][Phe(4-CF3)]T[NMeL][Phe(4-CF3)][NMeV][β3hA])) | 57 ×10⁻⁶ cm/s | 22 µL/min/mg | – | –
5 | CC(C)[C@@H]1NC(=O)[C@H](C)N(C)C(=O)[C@H](C(C)C)N(C)C(=O)CCN(C)C(=O)C[C@@H](C(=O)N(C)[C@@H](Cc2ccccc2)C(=O)N(C)[C@@H](Cc2ccccc2)C(=O)N[C@@H](C)C(=O)N2CCCCC2)NC(=O)[C@H](C)N(C)C(=O)[C@H](C)N(C)C(=O)[C@H]([C@@H](C)O)NC(=O)[C@H](C)N(C)C(=O)[C@H](Cc2ccccc2)N(C)C1=O [DP-450] ([NMeβAla][NMeV][NMeA]V[NMeF][NMeA]T[NMeA][NMeA]D[NMeF][NMeF]A-Piperidide; lactam N-10) | 2.3 ×10⁻⁶ cm/s | 17 µL/min/mg | – | –
6 | CC[C@H](C)[C@H]1C(=O)N[C@H](C(=O)N(C)[C@@H](Cc2ccccc2)C(=O)N(C)[C@@H](Cc2ccccc2)C(=O)N[C@@H](C)C(=O)N2CCCCC2)CC(=O)N(C)CC(=O)N(C)[C@@H](C)C(=O)N[C@@H]([C@@H](C)O)C(=O)N(C)[C@@H](C)C(=O)N(C)[C@@H](CC(C)C)C(=O)N(C)[C@@H](Cc2ccccc2)C(=O)N[C@@H](C(C)C)C(=O)N(C)[C@@H](CC(C)C)C(=O)N1C [DP-302] ([Sar][NMeA]T[NMeA][NMeL][NMeF]V[NMeL][NMeI]D[NMeF][NMeF]A-Piperidide; lactam N-10) | – | – | 18 ×10⁻⁶ cm/s | 102 µL/min/mg
7 | CC[C@H](C)[C@H]1C(=O)N[C@@H](C)C(=O)N(C)[C@@H](CC(C)C)C(=O)N[C@@H](COC(C)(C)C)C(=O)N(C)[C@@H](CC(C)C)C(=O)N[C@H](C(=O)N2CCCCC2)CC(=O)N(C)CCC(=O)N[C@@H](Cc2ccccc2)C(=O)N(C)[C@@H](Cc2ccccc2)C(=O)N(C)[C@@H](CC(C)C)C(=O)N[C@@H]([C@@H](C)O)C(=O)N(C)[C@@H](C)C(=O)N1C [DP-92] ([NMeβAla]F[NMeF][NMeL]T[NMeA][NMeI]A[NMeL]S(tBu)[NMeL]D-Piperidide; lactam N-12) | 26 ×10⁻⁶ cm/s | 29 µL/min/mg | – | –
8 | CC[C@H](C)[C@@H]1NC(=O)[C@H](C)N(C)C(=O)[C@H]([C@@H](C)O)NC(=O)[C@H](C(C)C)N(C)C(=O)[C@H](CC(C)C)NC(=O)[C@H](CC(C)C)N(C)C(=O)[C@@H](C)N(C)C(=O)C[C@H](C)NC(=O)[C@H](Cc2ccccc2)NC(=O)[C@H](C)NC(=O)[C@H](Cc2ccccc2)N(C)C1=O [DP-769] (cyclo(AF[β3hA][dNMeA][NMeL]L[NMeV]T[NMeA]I[NMeF])) | – | – | 53 ×10⁻⁶ cm/s | 78 µL/min/mg
9 | CC(C)C[C@H]1C(=O)N[C@@H](COC(C)(C)C)C(=O)N[C@H](C(=O)N2CCCCC2)CC(=O)N[C@H](C(C)C)C(=O)N(C)[C@@H](Cc2ccccc2)C(=O)N(C)[C@@H](C)C(=O)N(C)[C@@H](CC(C)C)C(=O)N[C@@H]([C@@H](C)O)C(=O)N(C)[C@@H](C)C(=O)N1C [DP-266] ([dV][NMeF][NMeA][NMeL]T[NMeA][NMeL]S(tBu)D-Piperidide; lactam N-9) | 43 ×10⁻⁶ cm/s | 134 µL/min/mg | – | –
10 | CC[C@H](C)[C@@H]1NC(=O)[C@H](CC(C)C)N(C)C(=O)[C@H](Cc2ccccc2)N(C)C(=O)[C@H](CC(C)C)NC(=O)CCCCCc2ccc(cc2)C[C@@H](C(=O)N2CCCCC2)NC(=O)[C@H](C)N(C)C(=O)[C@H](C)N(C)C(=O)CN(C)C(=O)[C@H]([C@@H](C)O)NC(=O)[C@H](Cc2ccccc2)N(C)C(=O)[C@H](C(C)C)N(C)C1=O [DP-875] (L[NMeF][NMeL]I[NMeV][NMeF]T[Sar][NMeA][NMeA][Phe(4-(CH2)5CO)]-Piperidide; lactam N-11) | 19 ×10⁻⁶ cm/s | 34 µL/min/mg | – | –
11 | CC(C)C[C@H]1C(=O)N(C)[C@@H](Cc2ccccc2)C(=O)N[C@@H](C)CC(=O)N[C@H](C(C)C)C(=O)N[C@@H](C)C(=O)N[C@@H]([C@@H](C)O)C(=O)N(C)[C@@H](C)C(=O)N[C@@H](Cc2ccccc2)C(=O)N1C [DP-796] (cyclo(AT[NMeA]F[NMeL][NMeF][β3hA][dV])) | 20 ×10⁻⁶ cm/s | 66 µL/min/mg | – | –
12 | CC(C)C[C@H]1C(=O)N(C)[C@@H](C)C(=O)N[C@@H]([C@@H](C)O)C(=O)N(C)[C@@H](C)C(=O)N(C)[C@@H](Cc2ccccc2)C(=O)N(C)CC(=O)N[C@H](C(=O)N(C)[C@@H](Cc2ccccc2)C(=O)N[C@@H](C)C(=O)N2CCCCC2)CC(=O)N(C)[C@@H](C)C(=O)N(C)[C@@H](C)C(=O)N[C@@H](C)C(=O)N[C@@H](Cc2ccccc2)C(=O)N1C [DP-345] ([NMeA][NMeA]AF[NMeL][NMeA]T[NMeA][NMeF][Sar]D[NMeF]A-Piperidide; lactam N-11) | 2.8 ×10⁻⁶ cm/s | 7 µL/min/mg | – | –
13 | CC[C@H](C)[C@@H]1NC(=O)[C@H](Cc2ccccc2)N(C)C(=O)CN(C)C(=O)[C@H]([C@@H](C)O)NC(=O)[C@H](CC(C)C)NC(=O)[C@H](CC(C)C)N(C)C(=O)[C@H](C)N(C)C(=O)CCCN(C)C(=O)C[C@@H](C(=O)N2CCCCC2)NC(=O)[C@H](Cc2ccccc2)N(C)C(=O)[C@H](C(C)C)N(C)C1=O [DP-477] ([NMeGABA][NMeA][NMeL]LT[Sar][NMeF]I[NMeV][NMeF]D-Piperidide; lactam N-11) | 29 ×10⁻⁶ cm/s | 30 µL/min/mg | – | –
14 | CC[C@H](C)[C@H]1C(=O)N(C)[C@@H](C)C(=O)N(C)[C@@H](Cc2ccccc2)C(=O)N[C@@H]([C@@H](C)O)C(=O)N(C)[C@@H](Cc2ccccc2)C(=O)N(C)[C@@H](CC(C)C)C(=O)N2CCC[C@H]2C(=O)N[C@@H](C)CC(=O)N[C@@H](C)C(=O)NCC(=O)N(C)[C@@H](CC(C)C)C(=O)N1C [DP-767] (cyclo(AG[NMeL][NMeI][NMeA][NMeF]T[NMeF][NMeL]P[β3hA])) | – | – | 30 ×10⁻⁶ cm/s | 34 µL/min/mg
15 | CC[C@H](C)[C@@H]1NC(=O)[C@H](C)N(C)C(=O)[C@H](C)N(C)C(=O)[C@H]([C@@H](C)O)NC(=O)CN(C)C(=O)[C@H](C(C)C)N(C)C(=O)[C@H](CC(C)C)N(C)C(=O)[C@H](Cc2ccccc2)NC(=O)[C@@H](C)N(C)C(=O)C[C@@H](C(=O)N(C)[C@@H](Cc2ccccc2)C(=O)N(C)[C@@H](Cc2ccccc2)C(=O)N[C@@H](C)C(=O)N2CCCCC2)NC1=O [DP-506] ([dNMeA]F[NMeL][NMeV][Sar]T[NMeA][NMeA]ID[NMeF][NMeF]A-Piperidide; lactam N-10) | 20 ×10⁻⁶ cm/s | 14 µL/min/mg | – | –
16 | CC(C)C[C@H]1C(=O)N[C@H](C(=O)N(C)[C@@H](Cc2ccccc2)C(=O)N(C)[C@@H](Cc2ccccc2)C(=O)N[C@@H](C)C(=O)N2CCCCC2)CC(=O)N[C@@H](C)C(=O)N(C)[C@@H](Cc2ccccc2)C(=O)N(C)[C@@H](CC(C)C)C(=O)N[C@@H]([C@@H](C)O)C(=O)N(C)[C@@H](C)C(=O)N(C)[C@@H](CC(C)C)C(=O)N[C@@H](C(C)C)C(=O)N1C [DP-208] (A[NMeF][NMeL]T[NMeA][NMeL]V[NMeL]D[NMeF][NMeF]A-Piperidide; lactam N-9) | 27 ×10⁻⁶ cm/s | 34 µL/min/mg | – | –
17 | CC[C@H](C)[C@@H]1NC(=O)[C@H](CC(C)C)NC(=O)[C@H](CC(C)C)NC(=O)[C@H](C)N(C)C(=O)[C@H](C(C)C)NC(=O)[C@H](C)NC(=O)C[C@@H](C(=O)N2CCCCC2)NC(=O)[C@H](CC(C)C)NC(=O)[C@H]([C@@H](C)O)NC(=O)[C@@H]2CCCN2C(=O)[C@H](CC(C)C)NC(=O)[C@H](Cc2ccccc2)NC1=O [DP-4] (AV[NMeA]LLIFLPTLD-Piperidide; lactam N-12) | – | – | 11 ×10⁻⁶ cm/s | 42 µL/min/mg
18 | CC(C)C[C@H]1C(=O)N[C@@H](C(C)C)C(=O)N[C@H](C(=O)N(C)[C@@H](Cc2ccccc2)C(=O)N[C@@H](C)C(=O)N2CCCCC2)CC(=O)N[C@H](C)C(=O)N(C)[C@@H](C)C(=O)N(C)[C@@H](Cc2ccccc2)C(=O)N(C)[C@@H](CC(C)C)C(=O)N[C@@H]([C@@H](C)O)C(=O)N(C)CC(=O)N1C [DP-380] ([dA][NMeA][NMeF][NMeL]T[Sar][NMeL]VD[NMeF]A-Piperidide; lactam N-9) | 17 ×10⁻⁶ cm/s | 58 µL/min/mg | – | –
